Series [1] relates to mechanical allodynia in rats. In words: Mechanical allodynia in vivo assay (spinal nerve ligation). Set-up: species or system rat. The method, then: This assay determines the effectiveness of compounds in relieving one of the symptoms of neuropathic pain produced by spinal nerve ligation, namely mechanical allodynia. The surgical procedure was performed essentially as described by Kim and Chung, Pain, (1992) 50:355-363. Briefly, the rats were anesthetized with an intraperitoneal dose of pentobarbital sodium (65 mg/kg) with additional doses of anesthetic given as needed. Each animal was then placed in a prone position, a 3 cm lateral incision was made, and the left paraspinal muscles separated from the spinous process at the L4 -S2 level. The L6 transverse process was then removed in order to visually identify the L4 -L6 spinal nerves. The L5 and L6 spinal nerves were then individually isolated and tightly ligated with silk thread. The wound was then closed in layers by silk sutures. Seven to 28 days post-surgery, a calibrated series of eight von Frey filaments were used to assess mechanical allodynia. Animals were housed individually in plexiglass cages with a wire mesh floor. Filaments of increasing stiffness were applied perpendicular to the midplantar surface in the sciatic nerve distribution areas of the left hindpaw and were slowly depressed (4-6 seconds) until bending occurred. The filament application order and number of trials were determined by the up-down method of Dixon (Chaplan, et al., J. Neurosci. Methods, (1994) 53:55-63). Flinching and licking of the paw and paw withdrawal on the ligated side were all considered positive responses. The 50% paw withdrawal threshold (g) was then calculated and compared to control. The doses for the acute and chronic studies were selected on the basis of prior assessment of the acute effects on the test compounds on the gross behavior in normal rats. Briefly, the rats were weighed and grouped into cages, dosed with the test compound, and observed continuously for changes in behavior. […] Pinna and corneal reflexes were tested by using a piece of natural hair from a brush that is attached to a glass rod. The righting reflexes were tested by placing the rat flat on its back, and recording the time it takes for the animal to right itself onto all four legs. The posture and gait were assessed by placing the rat on the floor.

The nature of series [2]: Adverse effects / gross behavior on dosing. It is filed as in vivo, rat. The procedure: The doses for the acute and chronic studies were selected on the basis of prior assessment of the acute effects on the test compounds on the gross behavior in normal rats. Briefly, the rats were weighed and grouped into cages, dosed with the test compound, and observed continuously for changes in behavior. […] Pinna and corneal reflexes were tested by using a piece of natural hair from a brush that is attached to a glass rod. The righting reflexes were tested by placing the rat flat on its back, and recording the time it takes for the animal to right itself onto all four legs. The posture and gait were assessed by placing the rat on the floor.
The selection of doses was similar to that of Example 12C.

For another series, the system named is cold allodynia in rats. In words: Cold allodynia in vivo assay (chronic constriction injury), chronic studies. The settings on record: for anti-allodynia after chronic dosing: subcutaneous, 5 days of twice daily dosing. Set-up: species or system rat. The method, then: This assay determines the effectiveness of compounds in relieving one of the symptoms of neuropathic pain produced by unilateral mononeuropathy, namely cold allodynia. Unilateral mononeuropathy was produced in rats using the Chronic Constriction Injury model performed essentially as described by Bennet and Xie, Pain, (1988) 33:87-107. Briefly, the rats were anesthetized with an intraperitoneal dose of pentobarbital sodium (65 mg/kg) with additional doses of anesthetic given as needed. The lateral aspect of each rat's hind limb was shaved and scrubbed with Novasan. Using aseptic technique, an incision was made on the lateral aspect of the hind limb at the mid-thigh level. The biceps femoris was bluntly dissected to expose the sciatic nerve. On the right hind limb of each rat, four loosely tied ligatures were made around the sciatic nerve approximately 1-2 millimeters apart. On the left side of each rat, an identical dissection was performed except that the sciatic nerve was not ligated. The muscle was closed with a continuous suture pattern, and the skin was closed with wound clips. Each rat was placed individually into a plexiglass chamber with a metal plate 6 cm from the bottom. This chamber was filled with ice water to a depth of 2.5 cm above the metal plate, with the temperature of the bath maintained at 0° C. throughout the experiment. A timer was started, and the rat's response latency was measured to the nearest tenth of a second. A "response" was defined as a rapid withdrawal of the right ligated hindpaw completely out of the water while the animal was stationary and not pivoting. An exaggerated limp while the animal was walking was not scored as a response. Maximum immersion time was 20 seconds with a 20 minute interval between trials. The screening criteria were 1) the average of two trials was less than or equal to 13 seconds, and 2) there was consistency across the two trial scores. Animals were screened for hypersensitivity to cold on post-surgery days 4 through 10, and selected for inclusion in dose-response studies based on the criteria described above. The pre-dose screening values were used as the animal's baseline cold allodynia scores. For chronic studies, the animals received subcutaneous or oral injections twice daily for 4 days and once on day 5. The animals were tested for allodynia on day 1 at 1, 3 and 5 hours following the 8 am dose, and at 5 hours following the 8 am dose on days 3 and 5. Two days later, the animals were tested for cold allodynia to assess whether there was a wash-out of the drug being tested. Following this screening for cold allodynia, the animals in two of the three chronic studies received either subcutaneous or oral injections of the drug at a dose previously shown to produce significant anti-allodynic effects acutely. […]

The nature of series [3]: Metabolism to Formula II / plasma levels of Formula II after oral administration. It is filed as in vivo.
Series [4] relates to voltage-gated sodium channels ([3H]BTX binding, rat cortex). In words: [3H]BTX binding assay, rat cortex membranes. The procedure: The following assays characterize the interaction of the compounds of Formula I with ligand binding sites on voltage-gated sodium channels.
Frozen tissues were obtained from Pel-Freez Biologicals (Rogers, AR). Tissues were homogenized in 10 volumes of a Tris-sucrose buffer (10 mM Tris-HCl, 250 mM sucrose, pH 7.4 at 4° C.) using 10 strokes with a glass-glass, hand-held homogenizer. The homogenates were filtered through nylon mesh and then centrifuged at 1,000×g for 15 minutes. The pellets were resuspended in a Hepes buffer (50 mM Hepes, 130 mM choline chloride, 5 mM glucose, 5.4 mM KCl, pH 7.4 at 4° C.). The resuspended pellets were centrifuged at 1,000×g for 15 minutes, resuspended in a Hepes buffer (50 mM Hepes, 130 mM choline chloride, 5 mM glucose, 5.4 mM KCl, pH 7.4 at 25° C.) and, frozen at -70° C. until used in binding assays.
Nonspecific binding was defined in the presence of 1 mM veratridine. Unless otherwise specified, PbTx (0.1 μM) and LqTx (50 μg/ml) were included in the assays. Membranes were incubated for 60 minutes at 25° C. and then filtered using GF/B glass fiber filters that had been pretreated with 0.3% PEI. Filters were rinsed with 3×1 ml of ice cold 50 mM Tris-HCl (pH 7.4 at 4° C.) and the bound radioactivity was determined by scintillation counting (Packard Top-count).

[5] abbreviates: mechanical allodynia, subcutaneous.
[6] abbreviates: subcutaneous, cold allodynia acute study.

Consider two molecules from US5688830A, “Treatment of neuropathic pain” (Syntex (U.S.A.) Inc., priority 1997, dated 1997).

As for `CCNC(C)COc1c(C)cccc1C` (racemic) [Formula I racemate, [2-(2,6-dimethylphenoxy)-1-methylethyl]-ethylamine], the ED50 in series [1] (Rattus norvegicus, sc, mechanical allodynia, subcutaneous) came to 12.6 mg/kg. In series [1] (setting [5]), the EDmax is 66% and the “maximal analgesic activity (Emax)” value is reported as 66%. Moreover, the “potency (ED50) comparison” value in series [1] (mechanical allodynia, subcutaneous, in words) is “considerably more potent (ED50) than II or III”. The “doses with adverse side effects / behavioral problems” value in series [2] (setting [6]) is reported as “higher than 60 mg/kg”. For the same molecule, in series [2] (subcutaneous, cold allodynia acute study, doses higher than 60 mg/kg), the “adverse side effects observed” value was “convulsions and immobility”. Besides, the “anti-allodynia after chronic dosing” value with cold allodynia in rats was “significant levels of anti-allodynia”. In addition, in series [3] (oral, mammal), the “metabolism to the compound of Formula II” value is on record as “metabolized to some extent to the compound of Formula II”. Moreover, the “potency in rat cortex greater than in rat heart or rat dorsal root ganglion” value in series [4] ([3H]BTX binding, rat cortex vs rat heart or dorsal root ganglion) is given as “approximately 10 fold”. The “inhibition of [3H]BTX binding” value in series [4] (rat cortex membranes) is given as “inhibited”.
`CCN[C@H](C)COc1c(C)cccc1C` [Formula I (R)-, (R)-[2-(2,6-dimethylphenoxy)-1-methylethyl]-ethylamine]: in series [1] (setting [5]), the “maximal analgesic activity (Emax)” value worked out at 98%. Also, the “maximal analgesic activity, comparison” value in series [1] (mechanical allodynia, subcutaneous, vs racemates of I, II and III) is recorded as “significantly greater maximal analgesic activity”. Also, the “analgesia against mechanical allodynia” value in series [1] (oral administration) is given as “did not produce analgesia”. The “doses with adverse side effects” value in series [2] (oral administration, mechanical allodynia study) was ≥ 300 mg/kg. Moreover, the safety profile entry in series [2] (oral administration, vs (S)-enantiomer) was “cleaner safety profile”; in series [2] (subcutaneous, cold allodynia acute study, vs racemate, (S)-enantiomer, or II) it was “cleaner safety profile”. Further, in series [2] (setting [6]), the “doses with adverse side effects / behavioral problems” value is listed as ≥ 300 mg/kg. In the series with cold allodynia in rats (oral, chronic, (R)-enantiomer 10 and 20 mg/kg, sub-threshold), the “anti-allodynic effect after chronic oral dosing” value is on record as “as robust an anti-allodynic effect as an acute dose of compound I that is 10 fold higher”. Besides, the “anti-allodynia after chronic dosing” value in the series with cold allodynia in rats is listed as “significant levels of anti-allodynia”. Further, the “plasma level of Formula II after oral (R)-enantiomer of Formula I, less than after acute administration of Formula II itself” value in series [3] (oral administration, plasma) was 5-10 fold less. Also, the “potency of (R)- versus (S)-enantiomer in inhibiting [3H]BTX binding” value in series [4] (rat brain cortex membranes) is given as “no difference in the potencies”.

The term ED50 denotes the dose at which the effect has come halfway, by size or by number of responders. Low values mean an effect at a small dose, high ones a need for a large dose.
